Assay results from PMC8474119, “Discovery and SAR Evolution of Pyrazole Azabicyclo[3.2.1]octane Sulfonamides as a Novel Class of Non-Covalent N-Acylethanolamine-Hydrolyzing Acid Amidase (NAAA) Inhibitors for Oral Administration” (Journal of Medicinal Chemistry, 2021).

Legend:
[1] = Plasma stability assay, mouse plasma; type: in vitro ADME; conditions: for % compound remaining at last time-point, plasma: 2.0 μM, 120 min; for half-life at 2 μM: n ≥ 3, read-out: plasma t1/2
Protocol: 10 mM DMSO stock solution of test compound (39 or 50) was diluted 50-fold with DMSO/H2O (1:1) and incubated at 37 °C for 2 h with mouse or rat plasma added with 5% DMSO (preheated at 37 °C for 10 min). The final compound’s concentration was 2.0 μM. At each time point (0, 5, 15, 30, 60, and 120 min), 50 μL of incubation mixture was diluted with 150 μL cold CH3CN spiked with 200 nM of warfarin, as the internal standard, followed by centrifugation at 3.270g for 20 min. The supernatant was further diluted with H2O (1:1) and analyzed by LC–MS/MS on a Waters ACQUITY UPLC-MS TQD system consisting of a triple quadrupole detector (TQD) mass spectrometer equipped with an electrospray ionization interface and a photodiode array eλ detector (PDA) from Waters Inc. (Milford, MA, USA). Electrospray ionization was applied in positive mode. Compound-dependent parameters as MRM transitions and collision energy were developed for each compound. The analyses were run on an ACQUITY UPLC BEH C18 (50 × 2.1 mm ID, particle size 1.7 μm) with a VanGuard BEH C18 precolumn (5 × 2.1 mm ID, particle size 1.7 μm) at 40 °C, using H2O + 0.1% HCOOH (A) and CH3CN + 0.1% HCOOH (B) as the mobile phase. The percentage of the test compound remaining at each time point relative to t = 0 was calculated by the response factor on the basis of the internal standard peak area. The percentage of test compound versus time was plotted and fitted by GraphPad Prism (GraphPad Software, Version 5 for Windows, CA, USA, www.graphpad.com) to estimate the compound’s half-life (t1/2), which was reported as mean value along with the standard deviation (n = 3).

[2] = Liver microsomal stability assay (NADPH), mouse; type: in vitro ADME; conditions: for half-life at 4.6 μM: male, CD1, pH 7.5, mouse liver microsomes, read-out: LM_NADPH t1/2; for % compound remaining at last time-point, LM_NADPH: mouse liver microsomes, 4.6 μM, 60 min
Protocol: Pooled CD1 mouse (M1000, male), IGS Sprague-Dawley rat (R1000, male), and human (H1000, male) liver microsomes were purchased from SEKISUI XenoTech. 10 mM DMSO stock solution of the test compound (39 or 50) was preincubated at 37 °C for 15 min with mouse, rat, or human liver microsomes in 0.1 M Tris-HCl buffer (pH 7.5) with 10% DMSO. The final concentration was 4.6 μM. After preincubation, the cofactor (NADPH) was added to the incubation mixture, and the incubation was continued at 37 °C for 1 h. At each time point (0, 5, 15, 30, and 60 min), 30 μL of incubation mixture was diluted with 200 μL cold CH3CN spiked with 200 nM of an appropriate internal standard, followed by centrifugation at 3.270g for 15 min. The supernatant was further diluted with H2O (1:1) for analysis. A reference incubation mixture of each specie (microsomes without cofactors) was prepared for each test compound and analyzed at t = 0 and 60 min in order to verify the compound stability in the matrix. The two time points were diluted as for the time points of the incubation mixture above. The supernatants were analyzed by LC–MS/MS on a Waters ACQUITY UPLC-MS TQD system consisting of a triple quadrupole detector (TQD) mass spectrometer equipped with an electrospray ionization interface and a photodiode array eλ detector (PDA) from Waters Inc. (Milford, MA, USA). Electrospray ionization was applied in positive mode. Compound-dependent parameters as MRM transitions and collision energy were developed for each compound. The analyses were run on an ACQUITY UPLC BEH C18 (50 × 2.1 mm ID, particle size 1.7 μm) with a VanGuard BEH C18 precolumn (5 × 2.1 mm ID, particle size 1.7 μm) at 40 °C, using H2O + 0.1% HCOOH (A) and CH3CN + 0.1% HCOOH (B) as the mobile phase. The percentage of test compound remaining at each time point relative to t = 0 was calculated by the response factor on the basis of the internal standard peak area. The percentage of test compound versus time was plotted and fitted by GraphPad Prism (GraphPad Software, Version 5 for Windows, CA, USA, www.graphpad.com) to estimate the compound’s half-life (t1/2), which was reported as mean value along with the standard deviation (n = 3).

[3] = Liver microsomal stability assay (NADPH), rat; type: in vitro ADME; conditions: male, Sprague-Dawley, pH 7.5, rat liver microsomes, read-out: LM_NADPH t1/2
Protocol: Pooled CD1 mouse (M1000, male), IGS Sprague-Dawley rat (R1000, male), and human (H1000, male) liver microsomes were purchased from SEKISUI XenoTech. 10 mM DMSO stock solution of the test compound (39 or 50) was preincubated at 37 °C for 15 min with mouse, rat, or human liver microsomes in 0.1 M Tris-HCl buffer (pH 7.5) with 10% DMSO. The final concentration was 4.6 μM. After preincubation, the cofactor (NADPH) was added to the incubation mixture, and the incubation was continued at 37 °C for 1 h. At each time point (0, 5, 15, 30, and 60 min), 30 μL of incubation mixture was diluted with 200 μL cold CH3CN spiked with 200 nM of an appropriate internal standard, followed by centrifugation at 3.270g for 15 min. […] A reference incubation mixture of each specie (microsomes without cofactors) was prepared for each test compound and analyzed at t = 0 and 60 min in order to verify the compound stability in the matrix. […] The supernatants were analyzed by LC–MS/MS on a Waters ACQUITY UPLC-MS TQD system consisting of a triple quadrupole detector (TQD) mass spectrometer equipped with an electrospray ionization interface and a photodiode array eλ detector (PDA) from Waters Inc. (Milford, MA, USA). […] The percentage of test compound remaining at each time point relative to t = 0 was calculated by the response factor on the basis of the internal standard peak area. […]

[4] = Aqueous kinetic solubility assay; type: physicochemical; conditions: PBS buffer, pH 7.4, n = 3
Protocol: The aqueous kinetic solubility was determined from a 10 mM DMSO stock solution of test compound (39 or 50) in PBS buffer at pH 7.4. The study was performed by incubating an aliquot of 10 mM DMSO stock solution in PBS (pH 7.4) to a target concentration of 250 μM (2.5% DMSO). The incubation was carried out under shaking at 25 °C for 24 h, followed by centrifugation at 21,100g for 30 min. The supernatant was further diluted (4:1) with CH3CN, and the dissolved test compound was quantified by UV at 215 nm on a Waters ACQUITY UPLC-MS system consisting of a single quadrupole detector (SQD) mass spectrometer equipped with an electrospray ionization interface and a photodiode array detector (PDA) from Waters Inc. (Milford, MA, USA). Electrospray ionization in positive mode was used in the mass scan range 100–500 Da. The PDA range was 210–400 nm. The analyses were run on an ACQUITY UPLC BEH C18 column (50 × 2.1 mm ID, particle size 1.7 μm) with a VanGuard BEH C18 precolumn (5 × 2.1 mm ID, particle size 1.7 μm), using 10 mM NH4OAc in H2O at pH 5 adjusted with AcOH (A) and 10 mM NH4OAc in CN–H2O (95:5) at pH 5 (B) as the mobile phase.

CCCCc1ccc(O[C@H]2C[C@H]3CC[C@@H](C2)N3S(=O)(=O)c2c(C)n[nH]c2C)cc1 [Compound 39, (1R,3r,5S)-3-(4-Butylphenoxy)-8-((3,5-dimethyl-1H-pyrazol-4-yl)sulfonyl)-8-azabicyclo[3.2.1]octane]
% compound remaining at last time-point, plasma [1]: 93% | half-life at 2 μM [1]: > 120 min | half-life at 4.6 μM [2]: > 60 min | % compound remaining at last time-point, LM_NADPH [2]: 93% | half-life at 1 h, 4.6 µM [3]: 13 min | solubility kinetic at 24 h [4]: < 1 µM

CCOCc1cnc(O[C@H]2C[C@H]3CC[C@@H](C2)N3S(=O)(=O)c2c(C)n[nH]c2C)cn1 [Compound 50, (1R,3r,5S)-8-((3,5-Dimethyl-1H-pyrazol-4-yl)sulfonyl)-3-((5-(ethoxymethyl)pyrazin-2-yl)oxy)-8-azabicyclo[3.2.1]octane]
% compound remaining at last time-point, plasma [1]: 95% | half-life at 2 μM [1]: > 120 min | half-life at 4.6 μM [2]: > 60 min | % compound remaining at last time-point, LM_NADPH [2]: 55% | half-life at 1 h, 4.6 µM [3]: 48 min | solubility kinetic at 24 h [4]: > 250 µM
